One experiment has as its system CNS cancer cell lines. Put plainly: NCI 60 screen, five dose. The class given is cell-based, human. The settings on record: for GI50: Homo sapiens; for no. cell lines used for the assay/no inhibited by compound: figures in parenthesis.
Another experiment relates to OVCAR-4. Put plainly: NCI 60 screen, five dose. In kind it is cell-based. Particulars: Homo sapiens, Ovarian Cancer, GI50 = molar concentration, read-out: Log10 GI50 (converted).
For a further experiment, the system named is A498. Put plainly: NCI 60 screen, five dose. In kind it is cell-based. The settings on record: Homo sapiens, Renal Cancer, GI50 = molar concentration, read-out: Log10 GI50 (converted).
The next experiment relates to A549/ATCC. As to the kind of experiment: NCI 60 screen, five dose. Particulars: Homo sapiens, Non-Small Cell Lung Cancer, GI50 = molar concentration, read-out: Log10 GI50 (converted). In kind it is cell-based.
Another experiment deals with MDA-MB-468. Put plainly: NCI 60 screen, five dose. The class given is cell-based. Particulars: Homo sapiens, Breast Cancer, GI50 = molar concentration, read-out: Log10 GI50 (converted).
The test system of experiment [1] is 60 human tumor cell lines. As to the kind of experiment: NCI 60 human tumor cell line screen. Particulars: for GI50: Homo sapiens, 60 cell, read-out: MID (average GI50 across the 60 cell lines); for average growth inhibition: single dose of 10 μm, 60 cell line panel. In kind it is cell-based. From the text:
To evaluate if the antiproliferative activity of the novel hydroxamic acid derived compounds was general across cancer types, selected compounds were submitted for testing in the tissue-specific panel of human tumor cell lines at the National Cancer Institute, Bethesda, USA. This screen utilizes 60 human tumor cell lines, representing leukemia, melanoma and cancers of the lung, colon, brain, ovary, kidney, prostate and breast. This cell line panel offers the advantage of having available microarray gene expression data across the 60 cell lines which can be used to determine the uniqueness of a new lead for which the molecular target(s) might not be known. The antitumor activity is presented for each cell line by three parameters, namely log10 GI50 value (GI50 = molar concentration of the compound that inhibits 50% net cell growth), log10 TG value (TGI = molar concentration of the compound leading to total inhibition of net cell growth), and log10 LC50 value (LC50 = molar concentration of the compound leading to 50% net cell death) accompanied by MID which refers to the average inhibitory value across the 60 cell lines.
In this assay, compounds 9c (NSC 747073) and 9d (NSC 747072) inhibited the proliferation of subsets of leukemia, colon, CNS, melanoma, and prostrate cancer cells to a higher extent than cells from other cancers (Fig 6A and 6B).

The next experiment has as its system TK-10. As to the kind of experiment: NCI 60 screen, five dose. In kind it is cell-based. The settings on record: Homo sapiens, Renal Cancer, GI50 = molar concentration, read-out: Log10 GI50 (converted).
A further experiment concerns K-562. Put plainly: NCI 60 screen, five dose. In kind it is cell-based. Particulars: Homo sapiens, K562, Leukemia, GI50 = molar concentration, read-out: Log10 GI50 (converted).
In a further experiment the test system is RXF 393. Put plainly: NCI 60 screen, five dose. In kind it is cell-based. The settings on record: Homo sapiens, Renal Cancer, GI50 = molar concentration, read-out: Log10 GI50 (converted).
The next experiment relates to MALME-3M. As to the kind of experiment: NCI 60 screen, five dose. Particulars: Homo sapiens, Melanoma, GI50 = molar concentration, read-out: Log10 GI50 (converted). The class given is cell-based.
Another experiment has as its system U251. As to the kind of experiment: NCI 60 screen, five dose. The class given is cell-based. Particulars: Homo sapiens, U-251, CNS Cancer, GI50 = molar concentration, read-out: Log10 GI50 (converted).
Another experiment has as its system SR. As to the kind of experiment: NCI 60 screen, five dose. In kind it is cell-based. The settings on record: Homo sapiens, Leukemia, GI50 = molar concentration, read-out: Log10 GI50 (converted).
For a further experiment, the system named is OVCAR-3. As to the kind of experiment: NCI 60 screen, five dose. The class given is cell-based. The settings on record: Homo sapiens, Ovarian Cancer, GI50 = molar concentration, read-out: Log10 GI50 (converted).
A further experiment has as its system HT29. As to the kind of experiment: NCI 60 screen, five dose. The class given is cell-based. Particulars: Homo sapiens, HT-29, Colon Cancer, GI50 = molar concentration, read-out: Log10 GI50 (converted).
The subject of the next experiment is MOLT-4. As to the kind of experiment: NCI 60 screen, five dose. The settings on record: Homo sapiens, Leukemia, GI50 = molar concentration, read-out: Log10 GI50 (converted). In kind it is cell-based.
The subject of another experiment is HS 578T. As to the kind of experiment: NCI 60 screen, five dose. The class given is cell-based. The settings on record: Homo sapiens, Breast Cancer, GI50 = molar concentration, read-out: Log10 GI50 (converted).

The GI50 is the concentration that inhibits growth by half.

On to `O=C(NO)c1ccc(S(=O)(=O)N2CCN(c3nc4ccccc4o3)CC2)cc1` [Compound 9c, 4-(4-Benzoxazol-2-yl-piperazin-1-sulfonyl)-N -hydroxy-benzamid], for which the GI50 in the experiment on CNS cancer cell lines was 5.82 µM; in the experiment on OVCAR-4, 4.9 µM; in the experiment with A498, 2.82 µM; in the experiment with A549/ATCC it was 13.5 µM; in the experiment with MDA-MB-468 it was 11 µM; in experiment [1] (five dose assay), 6.61 µM. Moreover, the concentration for 50% growth inhibition (GI50) was 7.94 µM in the experiment with TK-10; 6.31 µM in the experiment on K-562; 4.47 µM with RXF 393; 1.38 µM with MALME-3M; 6.46 µM in the experiment with U251. The “no. cell lines used for the assay/no inhibited by compound” value with CNS cancer cell lines is 4/6. The compound further showed an average growth inhibition in experiment [1] of 50%.

With `O=C(NO)c1ccc(S(=O)(=O)N2CCN(c3nc4ccccc4s3)CC2)cc1` [Compound 9d, 4-(4-Benzothiazol-2-yl-piperazin-1-sulfonyl)-N -hydroxy-benzamid], the GI50 in the experiment on SR was 1.12 µM; with OVCAR-3 it was 3.02 µM; in the experiment with CNS cancer cell lines it was 2.77 µM; in the experiment on OVCAR-4 it was 3.8 µM; in the experiment with A498, 1.82 µM; in the experiment on A549/ATCC, 3.63 µM. Also, the GI50 was 5.62 µM with HT29; 3.16 µM in experiment [1] (five dose assay); 3.63 µM in the experiment on TK-10; 3.02 µM in the experiment with MOLT-4; 2 µM in the experiment with RXF 393; 2.57 µM in the experiment with MALME-3M. In addition, the GI50 is 2.75 µM in the experiment on U251 and 1.45 µM in the experiment on HS 578T. Moreover, the “no. cell lines used for the assay/no inhibited by compound” value in the experiment on CNS cancer cell lines was 4/6. Besides, the “more potent overall by a factor, compared to 9c” value in [1] (MID, five dose assay) turned out to be 2. This compound gave an average growth inhibition in experiment [1] of 62%.
